Reference: publication PMC5940854, “Nitrothiophene carboxamides, a novel narrow spectrum antibacterial series: Mechanism of action and Efficacy” (Scientific Reports, 2018)
In brackets after ≈: the same amount, converted by molar mass. Several values for one entry are separate records, joined by “and”; a condition that tells them apart may be missing. Equal values may be shown once.

Columns and labels:
AcrB = molecular target: T1, AcrB (Escherichia coli, UniProt P31224); test: Thermal shift assay with CPM dye; set-up: species or system E. coli; details: AcrB vs apo-protein; > 1°C implies binding
T1 construct: Full length acrB gene was amplified from E. coli; BW25113; His-tag (C); made in house; host or cells: E. coli C43(DE3), plasmid pET21a
Description: AcrB overexpression protocol is adopted from Du. et al.[31]. Full length acrB gene was amplified from E. coli. BW25113 using Forward Primer 5′-[…]-3′ Reverse Primer 5′-[…]-3′ and cloned into the plasmid pET21a. The resultant plasmid that would express AcrB with a C-terminal His-tag is transformed into E. coli strain C43(DE3). The cells are induced on reaching A600 = 0.6 and transferred to 18 °C. The culture is harvested by centrifugation and re-suspended in Buffer A (100 mM Sodium Phosphate, 100 mM NaCl, 10 mM Imidazole, pH = 7.4, 100 µg/ml protease inhibitor cocktail from Roche and 5 U/ml DNase I and 5 mg/ml lysozyme). The cells are lysed at 15000 psi using Emulsiflex and centrifuged at 8000 g for removing cell debris. The membrane is isolated by centrifuging the resultant supernatant at 125000 g (see Coomassie stained SDS-PAGE of the purified protein Figure S9). Membrane solubilisation is done using Buffer A and 1.5% DDM (n-Dodecyl-β-D-Maltoside). Ni-NTA chromatography is used to purify the His-tagged protein and eluted in Buffer A with 300 mM Imidazole and 1.5% DDM.
The assay is performed according to protocols established elsewhere. CPM (N- [4-(7-diethylamino-4-methyl-3-coumarinyl) phenyl] maleimide) is a thiol specific fluorochrome (Excitation 387 nm, Emission 463 nm) and is non-fluorescent in an unbound state. The proteins, on thermal unfolding exposes cysteines allowing the CPM to bind and fluoresce. […]. The thermal denaturation is performed in a fluorimeter that is heated from 25 to 90 °C at a ramp rate of 1 °C/min. The Tm is calculated by analysing the melting profiles using Boltzmann Sigmoid function (GraphPad Prism) and ∆Tm is calculated by measuring the difference between the Tm of inhibitor bound protein and the apo-protein.

[1] = test system: E. coli clinical isolates; test: MIC on panel of E. coli clinical isolates; assay type: cell-based
E. coli ∆nfsA = test: microbe, parasite or virus in culture; assay type: cell-based; details: Escherichia coli, read-out: MIC ∆nfsA
Description: (§1) To assess the biological relevance of the interacting protein and establish the link between nitroreductases to the antibacterial activity of NTC compounds, single (ΔnfsA or ΔnfsB) and double knockouts (ΔnfsA & ΔnfsB) of nitroreductases were generated by phage transduction using strains from the Keio collection.
(§2) The inoculum used for all the experiments is derived from a single seed lot that is maintained as glycerol stocks at −80 °C and are sub cultured on LB plate for isolated colonies. Single colony of each strain is grown in M9 medium. All test compound stocks and dilutions are prepared in DMSO. Serial two-fold dilutions of compounds are prepared separately, with the concentrations ranging from 2 mg/mL to 0.015 mg/mL. To 150 µl (3–7 × 10^5 CFU/ml) of bacterial culture in 96 well microtitre plates, 3 μL compound from each of the dilutions is added to respective wells to obtain final concentrations ranging from 40 µg/mL to 0.3 µg/mL of the test compounds. Media control, culture control and appropriate reference drug controls are included. […] Growth is monitored by checking absorbance at 600 nm (A600). […] The samples from MIC and above concentrations are plated for MBC (Minimum Bactericidal Concentration). The samples are diluted 1:10 and plated on LB agar plates. […] The killing kinetics is determined by enumerating survivors at various time points following compound exposure. E. coli cells (~10^7 CFU/ml; A600 of 0.1) are treated with various concentrations (40 µg/mL to 0.3 µg/mL) of compounds in a 96-well microtitre plate. At various time intervals (0 to 8 h), 30 μl volumes of treated cultures are serially diluted and plated on LB agar plates. […] Data is expressed as the log10 CFU for each drug treatment.

E. coli ∆nfsA + ∆nfsB = test: microbe, parasite or virus in culture; assay type: cell-based
Description: as §1, §2

T1 sequence (P31224 whole entry): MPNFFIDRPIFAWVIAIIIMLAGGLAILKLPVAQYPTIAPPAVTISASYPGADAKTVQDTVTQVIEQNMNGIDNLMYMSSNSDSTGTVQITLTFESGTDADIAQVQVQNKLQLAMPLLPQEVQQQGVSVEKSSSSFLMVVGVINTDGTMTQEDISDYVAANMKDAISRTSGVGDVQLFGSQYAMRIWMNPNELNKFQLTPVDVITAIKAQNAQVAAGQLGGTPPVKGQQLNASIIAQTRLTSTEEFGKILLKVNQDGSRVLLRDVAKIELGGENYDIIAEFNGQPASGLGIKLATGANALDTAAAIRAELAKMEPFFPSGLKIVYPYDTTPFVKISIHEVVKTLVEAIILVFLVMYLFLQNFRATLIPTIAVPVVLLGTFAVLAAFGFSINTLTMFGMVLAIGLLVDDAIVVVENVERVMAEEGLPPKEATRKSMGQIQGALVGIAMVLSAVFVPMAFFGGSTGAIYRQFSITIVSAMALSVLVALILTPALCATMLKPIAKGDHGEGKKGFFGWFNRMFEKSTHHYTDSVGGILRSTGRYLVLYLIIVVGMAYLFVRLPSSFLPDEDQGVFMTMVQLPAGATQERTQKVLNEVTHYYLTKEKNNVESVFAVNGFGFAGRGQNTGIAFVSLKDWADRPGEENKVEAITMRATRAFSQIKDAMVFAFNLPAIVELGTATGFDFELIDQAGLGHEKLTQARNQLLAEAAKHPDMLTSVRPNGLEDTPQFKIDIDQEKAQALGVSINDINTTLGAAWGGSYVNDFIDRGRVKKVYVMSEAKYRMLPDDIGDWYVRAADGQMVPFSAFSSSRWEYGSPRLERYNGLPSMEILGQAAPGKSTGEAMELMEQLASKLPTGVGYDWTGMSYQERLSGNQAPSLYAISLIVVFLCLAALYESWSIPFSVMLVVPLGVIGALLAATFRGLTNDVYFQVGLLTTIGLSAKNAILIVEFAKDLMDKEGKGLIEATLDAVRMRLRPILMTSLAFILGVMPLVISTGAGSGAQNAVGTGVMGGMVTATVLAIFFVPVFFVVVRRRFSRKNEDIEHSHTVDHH

Compound: O=C(Nc1nc(-c2ccc(F)cc2)cs1)c1ccc([N+](=O)[O-])s1 [compound 15, N-(4-(4-Fluorophenyl)thiazol-2-yl)-5-nitrothiophene-2-carboxamide]
- ∆Tm (AcrB): 1.75 °C and < 2 °C
- MIC Range ([1]; 75 E.coli clinical isolates): 0.6 to 40 mg/L
- MIC50 ([1]; Escherichia coli, 75 E.coli clinical isolates, 50% clinical isolates): 1.25 mg/L (≈ 3.58 µM)
- MIC90 ([1]; Escherichia coli, 75 E.coli clinical isolates, 90% clinical isolates): 10 mg/L (≈ 28.6 µM)
- MIC ([1]; strain SEC001): 1 mg/L (≈ 2.86 µM)
- MIC ([1]; strain SEC002): 0.5 mg/L (≈ 1.43 µM)
- MIC ([1]; strain SEC003): 4 mg/L (≈ 11.4 µM)
- MIC ([1]; strain SEC004): 1 mg/L (≈ 2.86 µM)
- MIC ([1]; strain SEC005): 0.5 mg/L (≈ 1.43 µM)
- MIC ([1]; strain SEC006): 0.5 mg/L (≈ 1.43 µM)
- MIC ([1]; strain SEC007): 1 mg/L (≈ 2.86 µM)
- MIC ([1]; strain SEC008): 4 mg/L (≈ 11.4 µM)
- MIC ([1]; strain SEC011): 0.5 mg/L (≈ 1.43 µM)
- MIC ([1]; strain SEC012): 1 mg/L (≈ 2.86 µM)
- MIC ([1]; strain SEC013): 2 mg/L (≈ 5.72 µM)
- MIC ([1]; strain SEC014): 1 mg/L (≈ 2.86 µM)
- MIC ([1]; strain SEC015): 0.5 mg/L (≈ 1.43 µM)
- MIC ([1]; strain SEC016): 8 mg/L (≈ 22.9 µM)
- MIC ([1]; strain SEC017): 1 mg/L (≈ 2.86 µM)
- MIC ([1]; strain SEC018): 0.5 mg/L (≈ 1.43 µM)
- MIC ([1]; strain SEC019): 4 mg/L (≈ 11.4 µM)
- MIC ([1]; strain SEC020): 1 mg/L (≈ 2.86 µM)
- MIC ([1]; strain SEC021): 0.5 mg/L (≈ 1.43 µM)
- MIC ([1]; strain SEC022): 1 mg/L (≈ 2.86 µM)
- MIC ([1]; strain SEC023): 0.5 mg/L (≈ 1.43 µM)
- MIC ([1]; strain SEC024): 2 mg/L (≈ 5.72 µM)
- MIC ([1]; strain SEC025): 4 mg/L (≈ 11.4 µM)
- MIC ([1]; strain SEC026): 2 mg/L (≈ 5.72 µM)
- MIC ([1]; strain SEC028): 1 mg/L (≈ 2.86 µM)
- MIC ([1]; strain SEC029): 8 mg/L (≈ 22.9 µM)
- MIC ([1]; strain SEC031): 8 mg/L (≈ 22.9 µM)
- MIC ([1]; strain SEC032): 1 mg/L (≈ 2.86 µM)
- MIC ([1]; strain SEC033): 1 mg/L (≈ 2.86 µM)
- MIC ([1]; strain SEC034): 1 mg/L (≈ 2.86 µM)
- MIC ([1]; strain SEC035): 8 mg/L (≈ 22.9 µM)
- MIC ([1]; strain SEC036): 2 mg/L (≈ 5.72 µM)
- MIC ([1]; strain SEC037): 8 mg/L (≈ 22.9 µM)
- MIC ([1]; strain SEC038): 8 mg/L (≈ 22.9 µM)
- MIC ([1]; strain SEC039): 4 mg/L (≈ 11.4 µM)
- MIC ([1]; strain SEC040): 8 mg/L (≈ 22.9 µM)
- MIC ([1]; strain SEC041): 8 mg/L (≈ 22.9 µM)
- MIC ([1]; strain SEC042): 8 mg/L (≈ 22.9 µM)
- MIC ([1]; strain SEC043): 8 mg/L (≈ 22.9 µM)
- MIC ([1]; strain SEC044): 8 mg/L (≈ 22.9 µM)
- MIC ([1]; strain SEC045): 8 mg/L (≈ 22.9 µM)
- MIC ([1]; strain SEC046): 8 mg/L (≈ 22.9 µM)
- MIC ([1]; strain SEC047): 8 mg/L (≈ 22.9 µM)
- MIC ([1]; strain SEC048): 8 mg/L (≈ 22.9 µM)
- MIC ([1]; strain SEC049): 8 mg/L (≈ 22.9 µM)
- MIC ([1]; strain SEC050): 2 mg/L (≈ 5.72 µM)
- MIC ([1]; strain SEC051): 2 mg/L (≈ 5.72 µM)
- MIC ([1]; strain SEC052): 1 mg/L (≈ 2.86 µM)
- MIC ([1]; strain SEC053): 8 mg/L (≈ 22.9 µM)
- MIC ([1]; strain SEC054): 1 mg/L (≈ 2.86 µM)
- MIC ([1]; strain SEC055): 1 mg/L (≈ 2.86 µM)
- MIC ([1]; strain SEC057): 1 mg/L (≈ 2.86 µM)
- MIC ([1]; strain SEC058): 0.5 mg/L (≈ 1.43 µM)
- MIC ([1]; strain SEC059): 0.5 mg/L (≈ 1.43 µM)
- MIC ([1]; strain SEC060): 0.5 mg/L (≈ 1.43 µM)
- MIC ([1]; strain SEC061): 2 mg/L (≈ 5.72 µM)
- MIC ([1]; strain SEC062): 2 mg/L (≈ 5.72 µM)
- MIC ([1]; strain SEC063): 1 mg/L (≈ 2.86 µM)
- MIC ([1]; strain SEC064): 1 mg/L (≈ 2.86 µM)
- MIC ([1]; strain SEC065): 1 mg/L (≈ 2.86 µM)
- MIC ([1]; strain SEC067): 1 mg/L (≈ 2.86 µM)
- MIC ([1]; strain SEC068): 1 mg/L (≈ 2.86 µM)
- MIC ([1]; strain SEC069): 1 mg/L (≈ 2.86 µM)
- MIC ([1]; strain SEC070): 4 mg/L (≈ 11.4 µM)
- MIC ([1]; strain SEC071): 8 mg/L (≈ 22.9 µM)
- MIC ([1]; strain SEC072): 8 mg/L (≈ 22.9 µM)
- MIC ([1]; strain SEC073): 8 mg/L (≈ 22.9 µM)
- MIC ([1]; strain SEC074): 1 mg/L (≈ 2.86 µM)
- MIC ([1]; strain SEC075): 1 mg/L (≈ 2.86 µM)
- MIC ([1]; strain SEC076): 1 mg/L (≈ 2.86 µM)
- MIC ([1]; strain SEC077): 0.5 mg/L (≈ 1.43 µM)
- MIC ([1]; strain SEC078): 0.5 mg/L (≈ 1.43 µM)
- MIC ([1]; strain SEC079): 1 mg/L (≈ 2.86 µM)
- MIC ([1]; strain SEC080): 1 mg/L (≈ 2.86 µM)
- MIC (E. coli ∆nfsA): 0.6 mg/L (≈ 1.72 µM)
- MIC (E. coli ∆nfsA + ∆nfsB; Escherichia coli, read-out: MIC ∆nfsA + ∆nfsB): > 40 mg/L
- antibacterial activity in double knockout (in words) (E. coli ∆nfsA + ∆nfsB; ΔnfsA and ΔnfsB double knockout strain): completely inactive
